Data set [1] relates to HeLa cells. The data set can be described thus: HeLa cell viability by trypan blue dye exclusion. It counts as cell-based. The method, then:
Since extracellular calcium concentration can influence triptolide binding Applicants sought to determine if the presence of calcium influences the rate of triptolide-mediated apoptosis. To first establish the growth rate of HeLa in media±calcium, cell counts were performed over a 72 hour time course. Although calcium-free media caused cells to detach more easily, the overall growth rates were similar where cell doubling occurred every 24 hours on average (FIG. 3B). For triptolide experiments, cells were initially equilibrated in medium±calcium for 16 hours before the addition of 100 nM triptolide. Cell death was assessed by trypan blue dye exclusion at 24, 48, and 72 hours post drug treatment. In the presence of calcium-containing medium, triptolide induced at least 50% cell death by 24 hours with this trend continuing through later time points (FIG. 3C).
Applicants' results have implicated reversible binding of triptolide to a potential binding protein or complex that can be regulated by calcium. To understand if triptolide function is further separable between cell death and NFκB inhibition, Applicants examined the effect of concentration on these two endpoints. HeLa cells were cultured in the presence of 0, 10, 25, 50, or 100 nM of triptolide and separately assessed for cell death or the ability to suppress NFκB transactivation promoted by TNF-α. Following 24-48 hours of culture, viable cells were recovered and counted. Following 24 hours, triptolide concentrations from 25-100 nM caused greater than 50% of the cells to undergo cell death as assessed by detachment, clumping and the failure to exclude trypan blue dye. […] This is consistent with previous studies showing that low doses of triptolide cause cell cycle arrest rather than apoptosis (Kiviharju, et al., 2002, Clin Cancer Res 8, 2666-2674).
Based upon Applicants' studies examining the concentration dependent effect of triptolide on the two measured biological endpoints, cell death and transcriptional repression, Applicants wanted to determine how modulating triptolide's structure may also discriminate between the two pathways. For cell viability assays, HeLa cells were incubated with 0, 0.1, 1, or 10 μM of each analog or triptolide for 24 hours and then counted using trypan blue dye exclusion. […] NFκB transcriptional inhibition was measured using the κB-luciferase assay as previously described following 5 hours of incubation with each analog (0-10 μM) and TNF-α addition.
HeLa cells were incubated in DMEM or SMEM (Gibco) media+10% FBS and maintained at 37° C. in 5% CO2 for all experiments. HeLa cell viability was assessed by trypan blue dye exclusion, as well as by morphological examination (non-viable cells were rounded and detached from culture plate).

Data set [2] concerns HeLa cells. The data set can be described thus: Viability of parvalbumin-GFP transfected HeLa cells. The following applies: 100 nM. It counts as cell-based. The text has this:
To investigate further the role of calcium in triptolide function Applicants utilized a system to buffer intracellular calcium levels. Various GFP-parvalbumin (PV) fusion proteins can be specifically localized to either the nucleus or the cytoplasm through a nuclear localization or exclusion signal (NLS or NES, respectively) (Pusl, et al., 2002, J Biol Chem 277, 27517-27527). Parvalbumin has two EF-hand calcium binding domains and can efficiently reduce the availability of free calcium in the cell (Pauls, et al., 1996, Biochim Biophys Acta 1306, 39-54). HeLa cells were transiently transfected with the GFP vector control, NES-PV-GFP, or NLS-PV-GFP in calcium containing media and efficient expression of each construct was determined by GFP localization (FIG. 4A). Normal cell growth was first assessed throughout 48 hours with each of the constructs. […] For triptolide experiments, cells were transfected and allowed to express the construct for 24 hours before the addition of 100 nM triptolide. After 24 and 48 hours of treatment, cells were assessed for viability. […]
All parvalbumin-GFP constructs and control vectors (Pusl, et al., 2002, J Biol Chem 277, 27517-27527) were a gift of Anton Bennett (Yale University). […] Cell viability was assessed at 24 and 48 hours post triptolide addition by morphology and trypan blue dye exclusion.

The subject of the next data set is pregnant C57B1/6 mice. The data set can be described thus: Toxicity dose finding in pregnant mice. It counts as in vivo. The following applies: i.p. As for the experimental part:
Triptolide has been previously studied in rodent models of tumor regression (Tengchaisri, et al., 1998, Cancer Lett 133, 169-175; Yang, et al., 2003, Mol Cancer Ther 2, 65-72), but it had not yet been tested in a system utilizing pregnant females. To first establish a potential therapeutic versus lethal concentration of drug delivery, pregnant C57B1/6 mice were treated with incremental concentrations of triptolide between 0.01-0.15 mg/kg/day i.p. injections. Toxicity was assessed as determined by resorption of all embryos or the preponderance of a large percentage of stillborns. With reference to these criteria, triptolide toxicity was determined to be most prominent at concentrations of 0.1 mg/kg/day or greater. […] Another experimental parameter involved the timing of the start of triptolide injections, since polycystin-2 has been implicated in left-right axis formation in the developing embryo at approximately E7.75 (McGrath, et al., 2003, Cell 114, 61-73; Pennekamp, et al., 2002, Curr Biol 12, 938-943). Applicants therefore chose E10.5 as the start of triptolide injections, in order to allow for a normal polycystin-2 mediated patterning event and still leave sufficient time to act on cyst formation during kidney organogenesis.

SMILES strings stand for the structures.

Take `CC(C)[C@]12O[C@H]1[C@@H]1O[C@]13[C@]1(O[C@H]1C[C@H]1C4=C(CC[C@@]13C)C(=O)OC4)[C@@H]2O` [triptolide, Triptolide]: in the data set on HeLa cells [1] (10 nM), the cell growth entry is on record as “efficient at arresting cell growth”. The cell death in the data set with HeLa cells [1] (0.1 μM, 24 hours, analog study) is 60%; in the data set on HeLa cells [1] (0.1 μM, 24 hours, analog study, listed as Triptolide), “greater than 50%”; in the data set on HeLa cells [1] (100 nM, calcium-containing medium, by 24 hours), “at least 50%”; with HeLa cells [1] (25-100 nM, 24 hours), “greater than 50%”; in the data set on HeLa cells [1] (25-100 nM, 48 hours) it was “nearly all cells treated within this concentration range of triptolide died”; in the data set with HeLa cells [2] (all transfection conditions, 48 hours) it was “complete cell death”. Moreover, the “cell death at the higher concentrations” value in the data set with HeLa cells [1] (1 or 10 μM versus 0.1 μM, 24 hours) is on record as “no significant increase”. Moreover, the “minimal incubation time required for commitment to apoptosis” value with HeLa cells [1] (HeLa cells) is reported as “three to four”. Besides, the “cells rounded and no longer viable” value in the data set on HeLa cells [2] (control GFP vector or NLS-PV-GFP, 24 hours) amounted to 50%. For the same molecule, the “dose at which toxicity was most prominent (resorption of embryos, stillborns)” value in the data set with pregnant C57B1/6 mice is given as no less than 0.1 mg/kg/day.

The record behind these values is patent US20080188449A1, “Treatment of Conditions Caused By Calcium Abnormalities” (priority 2004, published 2008).
